Experimental findings from patent US6033823A, “Mutated penicillin G acylase genes” (priority 1994, dated 2000) are described below.

For test [1], the target named is T1, Alcaligenes faecalis Penicillin G acylase, wild type (α subunit SEQ ID NO:27, β subunit SEQ ID NO:32) (Alcaligenes faecalis, UniProt O34142).
T1 construct: alpha 202 aa, beta 551 aa; likely recombinant, E. coli host
T1 sequence (O34142 27-228): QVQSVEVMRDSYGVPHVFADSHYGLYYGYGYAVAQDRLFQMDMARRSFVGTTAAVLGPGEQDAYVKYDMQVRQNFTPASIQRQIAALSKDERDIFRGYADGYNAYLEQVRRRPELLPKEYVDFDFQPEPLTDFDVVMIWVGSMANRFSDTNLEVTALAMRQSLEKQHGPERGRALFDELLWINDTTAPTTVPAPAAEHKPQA
T1 sequence (O34142 266-816): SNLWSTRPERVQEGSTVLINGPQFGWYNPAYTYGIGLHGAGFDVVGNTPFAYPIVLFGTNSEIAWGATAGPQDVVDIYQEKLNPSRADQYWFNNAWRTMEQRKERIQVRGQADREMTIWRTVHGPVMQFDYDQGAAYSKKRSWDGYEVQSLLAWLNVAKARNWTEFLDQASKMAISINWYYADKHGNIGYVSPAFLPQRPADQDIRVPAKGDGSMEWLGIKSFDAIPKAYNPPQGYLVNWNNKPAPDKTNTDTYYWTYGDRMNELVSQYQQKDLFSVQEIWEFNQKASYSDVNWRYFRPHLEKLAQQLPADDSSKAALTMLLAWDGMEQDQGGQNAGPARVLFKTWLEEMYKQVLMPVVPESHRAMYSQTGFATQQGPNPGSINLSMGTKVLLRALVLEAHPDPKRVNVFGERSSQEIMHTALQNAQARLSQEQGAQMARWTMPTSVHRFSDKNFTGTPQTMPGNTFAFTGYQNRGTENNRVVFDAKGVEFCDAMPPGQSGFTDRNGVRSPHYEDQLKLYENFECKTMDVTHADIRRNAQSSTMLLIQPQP
As to the kind of experiment: Deacylation kinetics and phenylacetic acid product inhibition, wild type PenG acylase. In kind it is biochemical. Conditions: wt AF; from progress curves of NIPAB deacylation, 25° C., 0.1 M NaH2PO4.H2O buffer pH 7.5; read-out: Ki Phenylacetic acid (inhibition constant, dissociation constant). On the procedure: In order to determine enzymatic activity the acylases were incubated with substrate at room temperature in buffered solution. In case β-lactamase impurity was expected to be present in the enzyme preparations, 1.0 mM -lactamase inhibitor 6-bromo-penicillanic acid was added to the assay. The reactions were stopped by adding an excess PMSF. For some mutants which were less sensitive to PMSF inhibition, the reactions were stopped by adding 0.5 M HCl or 0.5 M acetic acid until the pH was between 3 and 4. When reactions were subsequently analysed by HPLC, the reactions were stopped by dilution with the correponding elution solvent (see table 1). […]
The composition of the reaction mixtures was determined by high-performanceliquid chromatography (HPLC)(table 1). Concentrations were determined by using standards of known concentration.
In a continuous assay Penicillin G acylase was assayed spectro-fotometrically with the chromogenic substrate NIPAB [6-nitro-3-phenylacetamido-benzoic acid]. The liberation of 3-amino-6-nitrobenzoic acid was monitored by measuring the extinction at 405 nm in a Kontron 610 kinetic spectrofotometer. […]
Initial rate measurements were performed with excess substrate over the enzyme. Catalytic parameters were derived from least-squares fitting of the measured initial rates plotted for various substrate concentrations according to the Michaelis-Menten equation. […]

Test [2] has as its target T2, Alcaligenes faecalis Penicillin G acylase mutant B:I177S (Alcaligenes faecalis, UniProt O34142, I442S).
T2 construct: alpha 202 aa, beta 551 aa; recombinant, E. coli host
T2 sequence (O34142 27-228): T1 sequence (O34142 27-228)
T2 sequence (O34142 266-816 I442S): T1 sequence (O34142 266-816) with I177S
As to the kind of experiment: NIPAB kinetics and phenylacetic acid product inhibition, mutant B:I177S. The class given is biochemical. Conditions: from progress curves of NIPAB deacylation, 25° C., 0.1 M NaH2PO4.H2O buffer pH 7.5, read-out: Ki Phenylacetic acid (inhibition constant, dissociation constant). How it is done: In a continuous assay Penicillin G acylase was assayed spectro-fotometrically with the chromogenic substrate NIPAB [6-nitro-3-phenylacetamido-benzoic acid]. The liberation of 3-amino-6-nitrobenzoic acid was monitored by measuring the extinction at 405 nm in a Kontron 610 kinetic spectrofotometer. Measuring maximal rate, the assays were performed at 25° C. using 20 mM NaH2 PO4.H2 O at pH 7.5 with 20 mM NIPAB and 100 μl enzym solution (at a proper dilution). Initial rate measurements were performed with varying concentration of NIPAB.
Initial rate measurements were performed with excess substrate over the enzyme. Catalytic parameters were derived from least-squares fitting of the measured initial rates plotted for various substrate concentrations according to the Michaelis-Menten equation.
The complete conversion of NIPAB was followed as a funtion of time at 20, 50 and 100 μM NIPAB by following the increase in absorbtion at 405 nm. Products of this conversion are phenylacetic acid and 3-amino-6-nitrobenzoic acid. The conversion was performed at 25° C. in 0.1 M NaH2 PO4.H2 O buffer pH 7.5. The progress curves of the deacylation of NIPAB could be fitted very well when product inhibition by phenylacetic acid was taken into account. […]

Where a chain is given by its changes, count along the chain named.

Consider `O=C(O)Cc1ccccc1` [phenylacetic acid], for which the inhibitory constant (Ki) (as a rule, a measure of affinity in units of concentration, obtained from inhibition or displacement) in test [1] came to 11 µM; in test [2] it was 252 µM.
